The values below come from ChEMBL document CHEMBL1909582, “Identification of novel NK1/NK3 dual antagonists for the potential treatment of schizophrenia” (Bioorg Med Chem Lett, 2011).

Test [1] addresses T1, Neuromedin-K receptor (Homo sapiens, UniProt P29371).
T1 sequence (P29371 whole entry): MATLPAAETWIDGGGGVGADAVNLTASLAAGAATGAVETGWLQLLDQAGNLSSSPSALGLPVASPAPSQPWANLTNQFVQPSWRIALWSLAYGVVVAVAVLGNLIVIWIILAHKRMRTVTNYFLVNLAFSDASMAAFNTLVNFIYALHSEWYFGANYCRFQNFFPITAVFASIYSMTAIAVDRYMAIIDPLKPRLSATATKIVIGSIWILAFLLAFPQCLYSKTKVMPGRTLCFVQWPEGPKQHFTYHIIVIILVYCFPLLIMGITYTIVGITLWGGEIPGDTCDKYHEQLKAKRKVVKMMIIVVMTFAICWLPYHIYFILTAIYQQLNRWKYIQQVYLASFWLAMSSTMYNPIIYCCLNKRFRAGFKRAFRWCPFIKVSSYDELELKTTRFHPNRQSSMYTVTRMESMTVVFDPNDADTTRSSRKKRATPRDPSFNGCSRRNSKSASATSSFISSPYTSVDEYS
The test can be described thus: Antagonist activity at human recombinant NK3 receptor expressed in human U20S cells assessed as effect on NKB-induced intracellular calcium level by FLIPR assay. The format is functional, cell-based, U2OS.

For test [2], the target named is T2, Substance-P receptor (Homo sapiens, UniProt P25103). The test can be described thus: Antagonist activity at human recombinant NK1 receptor expressed in human U20S cells assessed as effect on substance P-induced intracellular calcium level by FLIPR assay. Format: functional, cell-based, U2OS.
Test [3] addresses T2, Substance-P receptor. Kind of test: Antagonist activity at human recombinant NK1 receptor expressed in human U20S cells assessed as substance P maximal stimulation at 3 nM by FLIPR assay. The format is functional, cell-based. To be noted: U2OS.
Test [4] addresses T2, Substance-P receptor. Kind of test: Antagonist activity at human recombinant NK1 receptor expressed in human U20S cells assessed as substance P maximal stimulation at 1 nM by FLIPR assay. To be noted: U2OS. The format is functional, cell-based.
Test [5] addresses T3, Neuromedin-K receptor (Homo sapiens) (UniProt P29371).
T3 sequence (whole entry): T1 sequence (P29371 whole entry)
Kind of test: Antagonist activity at human recombinant NK3 receptor expressed in human U20S cells assessed as neurokinin B maximal stimulation at 30 nM by FLIPR assay. To be noted: U2OS.

Test [6] addresses T3, Neuromedin-K receptor (Homo sapiens). Kind of test: Antagonist activity at human recombinant NK3 receptor expressed in human U20S cells assessed as neurokinin B maximal stimulation at 100 nM by FLIPR assay. To be noted: U2OS.

T2 sequence (P25103 whole entry): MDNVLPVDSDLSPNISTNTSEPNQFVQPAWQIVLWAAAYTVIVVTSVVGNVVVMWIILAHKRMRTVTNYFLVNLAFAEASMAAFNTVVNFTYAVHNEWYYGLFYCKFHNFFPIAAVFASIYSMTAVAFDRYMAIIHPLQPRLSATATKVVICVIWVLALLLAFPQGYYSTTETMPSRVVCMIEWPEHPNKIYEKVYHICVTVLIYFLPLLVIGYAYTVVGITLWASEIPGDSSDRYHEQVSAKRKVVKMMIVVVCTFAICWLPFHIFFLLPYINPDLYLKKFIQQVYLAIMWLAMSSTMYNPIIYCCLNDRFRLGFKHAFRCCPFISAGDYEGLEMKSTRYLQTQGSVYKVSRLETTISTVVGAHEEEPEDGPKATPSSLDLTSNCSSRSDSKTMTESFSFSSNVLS

For `Cc1cc(F)ccc1-c1cc(C2CNC(=O)C2)ncc1N(C)C(=O)C(C)(C)c1cc(C(F)(F)F)cc(C(F)(F)F)c1` (stereo not drawn), the Ki in test [1] is 31.6 nM; in test [2], less than 0.158 nM. The Emax turned out to be 20% in test [3] and 64% in test [4].

Turning to `Cc1cc(F)ccc1-c1cc(C2CNC(=O)C2CO)ncc1N(C)C(=O)C(C)(C)c1cc(C(F)(F)F)cc(C(F)(F)F)c1` (racemic) [listing 1 of 2 here], the results for the Ki in test [1] and in test [2] were 7.94 nM and 0.251 nM, respectively.

Regarding `Cc1cc(F)ccc1-c1cc(C2CC(=O)NC2(CO)CO)ncc1N(C)C(=O)C(C)(C)c1cc(C(F)(F)F)cc(C(F)(F)F)c1` (racemic) [listing 1 of 2 here], the Ki in test [1] is 5.01 nM; in test [2] it was 0.1 nM.

Regarding `Cc1cc(F)ccc1-c1cc(C2CC(=O)NC2(CO)CO)ncc1N(C)C(=O)C(C)(C)c1cc(C(F)(F)F)cc(C(F)(F)F)c1` (racemic) [listing 2 of 2 here], the Emax in test [3] came to 28%; in test [4], 89%.

As for `Cc1cc(F)ccc1-c1cc(C2CNC(=O)C2CO)ncc1N(C)C(=O)C(C)(C)c1cc(C(F)(F)F)cc(C(F)(F)F)c1` (racemic) [listing 2 of 2 here], the values for the Emax in test [3] and in test [4] were 63% and 109%, respectively.

For `Cc1cc(F)ccc1-c1cc(C2CN(C)C(=O)C2CO)ncc1N(C)C(=O)C(C)(C)c1cc(C(F)(F)F)cc(C(F)(F)F)c1` (single isomer, unassigned), the Ki was 1 nM in test [1] and 0.0631 nM in test [2]. Further, the Emax in test [5] amounted to 67%; in test [3], 5%; in test [6], 56%; in test [4] it was 66%.

As for `Cc1cc(F)ccc1-c1cc(C2NC(=O)CC2CO)ncc1N(C)C(=O)C(C)(C)c1cc(C(F)(F)F)cc(C(F)(F)F)c1` (single isomer, unassigned; 8a) [listing 1 of 2 here], the Ki in test [1] is 39.8 nM; in test [2], 0.0794 nM.

Regarding `Cc1cc(F)ccc1-c1cc(C2NC(=O)CC2CO)ncc1N(C)C(=O)C(C)(C)c1cc(C(F)(F)F)cc(C(F)(F)F)c1` (single isomer, unassigned; 8a) [listing 2 of 2 here], the Emax in test [3] amounted to 25%; in test [4] it was 64%.

For the molecule `Cc1cc(F)ccc1-c1cc(C2NC(=O)CC2CO)ncc1N(C)C(=O)C(C)(C)c1cc(C(F)(F)F)cc(C(F)(F)F)c1` (single isomer, unassigned; 8b), the Ki in test [1] is 501 nM; in test [2], 0.501 nM.

For `Cc1cc(F)ccc1-c1cc(C2NC(=O)CC2CO)ncc1N(C)C(=O)C(C)(C)c1cc(C(F)(F)F)cc(C(F)(F)F)c1` (single isomer, unassigned; 9a) [listing 1 of 2 here], the values for the Ki in test [1] and in test [2] were 5.01 nM and 0.251 nM, respectively.

With `Cc1cc(F)ccc1-c1cc(C2NC(=O)CC2CO)ncc1N(C)C(=O)C(C)(C)c1cc(C(F)(F)F)cc(C(F)(F)F)c1` (single isomer, unassigned; 9a) [listing 2 of 2 here], the maximum response (Emax) in test [5] came to 83%; in test [3] it was 60%; in test [6], 74%; in test [4], 98%.

For the molecule `Cc1cc(F)ccc1-c1cc(C2NC(=O)CC2CO)ncc1N(C)C(=O)C(C)(C)c1cc(C(F)(F)F)cc(C(F)(F)F)c1` (single isomer, unassigned; 9b) [listing 1 of 2 here], the figures for the Ki in test [1] and in test [2] were 31.6 nM and 0.316 nM, respectively.

With `Cc1cc(F)ccc1-c1cc(C2NC(=O)CC2CO)ncc1N(C)C(=O)C(C)(C)c1cc(C(F)(F)F)cc(C(F)(F)F)c1` (single isomer, unassigned; 9b) [listing 2 of 2 here], the Emax came to 30% in test [3] and 79% in test [4].

With `Cc1cc(F)ccc1-c1cc(C2CC(=O)NC2CO)ncc1N(C)C(=O)C(C)(C)c1cc(C(F)(F)F)cc(C(F)(F)F)c1` (single isomer, unassigned; 21a), the Ki in test [1] is 25.1 nM; in test [2] it was less than 0.158 nM.

For `Cc1cc(F)ccc1-c1cc(C2CC(=O)NC2CO)ncc1N(C)C(=O)C(C)(C)c1cc(C(F)(F)F)cc(C(F)(F)F)c1` (single isomer, unassigned; 21b), the Ki is 794 nM in test [1] and less than 0.158 nM in test [2].

For `Cc1cc(F)ccc1-c1cc(C2CC(=O)NC2CO)ncc1N(C)C(=O)C(C)(C)c1cc(C(F)(F)F)cc(C(F)(F)F)c1` (single isomer, unassigned; 22a) [listing 1 of 2 here], the Ki in test [1] was 2 nM; in test [2], 0.251 nM.

For `Cc1cc(F)ccc1-c1cc(C2CC(=O)NC2CO)ncc1N(C)C(=O)C(C)(C)c1cc(C(F)(F)F)cc(C(F)(F)F)c1` (single isomer, unassigned; 22a) [listing 2 of 2 here], the Emax is 101% in test [5], 39% in test [3], 76% in test [6] and 103% in test [4].

For the molecule `Cc1cc(F)ccc1-c1cc(C2CC(=O)NC2CO)ncc1N(C)C(=O)C(C)(C)c1cc(C(F)(F)F)cc(C(F)(F)F)c1` (single isomer, unassigned; 22b), the Ki is 20 nM in test [1] and 0.251 nM in test [2].

`Cc1cc(F)ccc1-c1cc(C2CNC(=O)C2CO)ncc1N(C)C(=O)C(C)(C)c1cc(C(F)(F)F)cc(C(F)(F)F)c1` (single isomer, unassigned; enantiomer 1) [listing 1 of 2 here]: the Ki was 79.4 nM in test [1] and 0.0501 nM in test [2].

Turning to `Cc1cc(F)ccc1-c1cc(C2CC(=O)NC2(CO)CO)ncc1N(C)C(=O)C(C)(C)c1cc(C(F)(F)F)cc(C(F)(F)F)c1` (single isomer, unassigned; enantiomer 1), the Ki in test [1] is 6.31 nM; in test [2], less than 0.158 nM.

On to `Cc1cc(F)ccc1-c1cc(C2CNC(=O)C2CO)ncc1N(C)C(=O)C(C)(C)c1cc(C(F)(F)F)cc(C(F)(F)F)c1` (single isomer, unassigned; enantiomer 1) [listing 2 of 2 here], for which the Emax in test [3] turned out to be 19%; in test [4] it was 103%.

Take `Cc1cc(F)ccc1-c1cc(C2CNC(=O)C2CO)ncc1N(C)C(=O)C(C)(C)c1cc(C(F)(F)F)cc(C(F)(F)F)c1` (single isomer, unassigned; enantiomer 2) [listing 1 of 2 here]: the Ki in test [1] is 1.58 nM; in test [2], 0.158 nM.

Turning to `Cc1cc(F)ccc1-c1cc(C2CC(=O)NC2(CO)CO)ncc1N(C)C(=O)C(C)(C)c1cc(C(F)(F)F)cc(C(F)(F)F)c1` (single isomer, unassigned; enantiomer 2), the results for the Ki in test [1] and in test [2] were 631 nM and less than 0.158 nM, respectively.

For the molecule `Cc1cc(F)ccc1-c1cc(C2CNC(=O)C2CO)ncc1N(C)C(=O)C(C)(C)c1cc(C(F)(F)F)cc(C(F)(F)F)c1` (single isomer, unassigned; enantiomer 2) [listing 2 of 2 here], the Emax was determined as 37% in test [3] and 101% in test [4].
